Results taken from patent US20260373248A1, “DEGRADABLE PEPTOIDS” (Medici Therapeutics, Inc., priority 2023, published 2026).
Non-standard residues stand in square brackets, D forms with d. Residues, ends and D or L forms follow the SMILES beside them. *: point of attachment. Gly(N-(3-decanoyloxypropyl)) = CCCCCCCCCC(=O)OCCCNCC(=O)O; Gly(N-(CH2)3O-octanoyl) = CCCCCCCC(=O)OCCCNCC(=O)O; Gly(N-3-morpholinopropyl) = O=C(O)CNCCCN1CCOCC1; N(2-ethylhexyl)Gly = CCCCC(CC)CNCC(=O)O; Gly(N-dodecyl) = CCCCCCCCCCCCNCC(=O)O; For = O=C*

Key:
[1] = Peptoid quantity remaining in liver by HPLC-TOF mass spectrometry; type: in vivo; conditions: liver homogenate
Summary of the method: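 Whole liver weighed; 20 mg tissue bead-homogenized in IPA/MeOH (8/2) with internal standard, centrifuged, supernatant run on BEH C8 HPLC-TOF MS. Peptoid concentration derived from linear calibration curve (0.2-50 μg/g) prepared in spiked untreated liver.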

[2] = Delivery vehicle size and polydispersity by dynamic light scattering; type: physicochemical
Summary of the method: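 LNPs made by microfluidic mixing of ethanolic peptoid/DSPC/cholesterol/DMG-PEG2000 (20:1.79:7.16:1.84 by weight) with mRNA in 10 mM citrate pH 5.0 at 1:3 by volume, then dialyzed overnight at 4 °C against tris-sucrose pH 7.4. Size and PDI read by dynamic light scattering in PBS.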

[3] = system: firefly luciferase; assay: In vivo firefly luciferase expression after intravenous injection of fLuc mRNA delivery vehicles (IVIS imaging); parameters: species or system female Balb/c mice; conditions: for Total Flux (luciferase expression): fLuc mRNA, intravenous, Balb/c mice; for Total Flux: mice, 2.5 ug fLuc mRNA intravenously, 6 hours post-injection
Summary of the method: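 Female Balb/c mice (6-8 weeks) given 2.5 ug fLuc mRNA in Nutshells IV. At 6 hours, IP D-luciferin (30 mg/mL, 10 μL/g) under isoflurane; IVIS imaging 10 minutes later, then harvested organs imaged ex vivo. Read-out: total photon flux in regions of interest.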

[4] = system: mRNA; assay: mRNA encapsulation (modified Quant-iT RiboGreen assay); type: physicochemical; conditions: for mean percent encapsulation of RNA: RiboGreen, without vs with Triton X-100; for % Encapsulation: mRNA
Summary of the method: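 Peptoid nanoparticles were incubated with Triton X-100 for 10 min to release entrapped mRNA, then mixed with RiboGreen reagent and read by fluorescence (ex 485 nm/em 530 nm). Percent encapsulation was derived from the ratio of fluorescence without versus with Triton X-100.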

[5] = system: luciferase; assay: Luciferase expression after local (intramuscular or subcutaneous) administration of mRNA; type: in vivo; conditions: mRNA 0.01 mpk, 6 hours; for IM Flux: intramuscular; for SC Flux: subcutaneous
Summary of the method: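 Female Balb/c mice (6-8 weeks) received fLuc mRNA in aminolipidated peptoid Nutshells at 0.01 mpk subcutaneously or intramuscularly, or 0.1 mpk intratumorally. At 6 hours, anesthetized mice were given D-luciferin IP and imaged 10 minutes later; harvested organs were also imaged and total photon flux quantified in regions of interest.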

[6] = system: hEPO; assay: Quantification of hEPO in serum after IV injection of mRNA (Human EPO ELISA); type: in vivo; conditions: Balb/c mice, 2.5 μg mRNA IV, serum after 6 hours
Summary of the method: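 Balb/c mice received 2.5 μg mRNA encoding human EPO by IV injection; serum was collected after 6 hours. hEPO was measured by sandwich ELISA (biotin-conjugate, streptavidin-HRP, TMB, A450) against kit standards (mIU/mL) and an external standard (ng/mL), with values interpolated and corrected for dilution.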

[7] = DLS in PBS, peptoid:DSPC:Cholesterol:DMG-PEG2000 weight ratio 20:1.79:7.16:1.84, mRNA

% of injected dose remaining in liver [1] | PDI [2, 7] | Particle Size [2, 7] | Particle Size ([2]; formulation recipe R5) | mean percent encapsulation of RNA [4] | % Encapsulation ([4]; formulation recipe R5) | Particle Size ([2]; formulation recipe F2) | % Encapsulation ([4]; formulation recipe F2) | Compound | Total Flux (luciferase expression) ([3]; formulation recipe R5) | Total Flux [3] | IM Flux [5] | SC Flux [5] | hEPO [6] | Total Flux (luciferase expression) ([3]; formulation recipe F2)
0.19% | 0.138 | 95.4 nm | 87.6 nm | 39.2% | 71.6% |  |  | CCCCCCCCCC(=O)OCCCN(C=O)CC(=O)N(CCCOC(=O)CCCCCCCCC)CC(=O)N(CC(=O)N(CCCN1CCOCC1)CC(=O)N(CCCOC(=O)CCCCCCCCC)CC(=O)N(CCCOC(=O)CCCCCCCCC)CC(=O)N(CC(N)=O)CC(CC)CCCC)CC(CC)CCCC (stereo not shown) [Compound 112] (For-[Gly(N-(3-decanoyloxypropyl))][Gly(N-(3-decanoyloxypropyl))][N(2-ethylhexyl)Gly][Gly(N-3-morpholinopropyl)][Gly(N-(3-decanoyloxypropyl))][Gly(N-(3-decanoyloxypropyl))][N(2-ethylhexyl)Gly]-NH2) | 2.67E+08 p/s | 1.13E+09 p/s | 1.80E+08 p/s | 2.33E+08 p/s | 345 ng/mL | 
15.67% | 1.000 | 88.9 nm |  | 32.6% |  | 71.4 nm | 67.8% | CCCCCCCCCCCCN(C=O)CC(=O)N(CCCOC(=O)CCCCCCC)CC(=O)N(CC(=O)N(CCCN1CCOCC1)CC(=O)N(CC(=O)N(CCCOC(=O)CCCCCCC)CC(=O)N(CCCCCCCCCCCC)CC(N)=O)CC(CC)CCCC)CC(CC)CCCC (stereo not shown) [Compound 116] (For-[Gly(N-dodecyl)][Gly(N-(CH2)3O-octanoyl)][N(2-ethylhexyl)Gly][Gly(N-3-morpholinopropyl)][N(2-ethylhexyl)Gly][Gly(N-(CH2)3O-octanoyl)][Gly(N-dodecyl)]-NH2) |  | 3.82E+09 p/s | 7.83E+07 p/s | 3.53E+08 p/s | 269 ng/mL | 1.60E+09 p/s
